The results in this text go back to ChEMBL document CHEMBL1154350 (Bioorg Med Chem Lett, 2009).

The target in assay [1] is T1, Succinyl-diaminopimelate desuccinylase (Haemophilus influenzae (strain ATCC 51907 / DSM 11121 / KW20 / Rd), UniProt P44514).
T1 sequence (P44514 whole entry): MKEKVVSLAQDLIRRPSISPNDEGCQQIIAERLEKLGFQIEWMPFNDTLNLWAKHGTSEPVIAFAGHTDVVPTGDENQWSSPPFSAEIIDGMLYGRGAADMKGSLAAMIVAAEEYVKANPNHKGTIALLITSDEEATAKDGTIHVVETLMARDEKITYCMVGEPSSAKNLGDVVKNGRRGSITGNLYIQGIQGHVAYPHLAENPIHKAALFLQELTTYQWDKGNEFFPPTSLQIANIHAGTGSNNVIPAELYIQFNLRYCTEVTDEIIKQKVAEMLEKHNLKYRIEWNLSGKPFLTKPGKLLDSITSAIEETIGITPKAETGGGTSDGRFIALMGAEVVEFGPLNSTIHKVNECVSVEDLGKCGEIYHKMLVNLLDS
Put plainly: Inhibition of Haemophilus influenzae recombinant DapE by competitive binding assay.

Assay [2] has as its target T1, Succinyl-diaminopimelate desuccinylase. Put plainly: Inhibition of Haemophilus influenzae recombinant DapE.
For assay [3] the target is unchanged. Put plainly: Inhibition of Haemophilus influenzae recombinant DapE by non-competitive binding assay.
Assay [4] concerns Escherichia coli. Put plainly: Antibacterial activity against Escherichia coli at 20 mg by antibiotic plate assay. The assay is classed as functional, organism-based.
For assay [5], the system named is Escherichia coli. Put plainly: Antibacterial activity against Escherichia coli at 5 mg by antibiotic plate assay. It counts as functional, organism-based.
For assay [6], the system named is Escherichia coli. Nature of the assay: Antibacterial activity against Escherichia coli at 1 mg by antibiotic plate assay. The assay is classed as functional, organism-based.

The source made the active and inactive calls. The rule behind the calls is not given here.

For orientation: Ki means a dissociation constant, usually derived from enzyme kinetics or from competition with a known ligand. Usually IC50 stands for the concentration that gives 50% inhibition. In the case of `CC(C)(S)[C@H](N)C(=O)O`, in assay [1], the Ki is 4.6 µM. Moreover, in assay [2], the IC50 worked out at 13.7 µM.
Take `O=C(O)c1cccc(B(O)O)c1`: the IC50 in assay [2] is greater than 10000 µM.
In the case of `O=C(O)c1cccc(S)c1`, the IC50 in assay [2] was determined as 34 µM.
In the case of `O=C(O)CCP(=O)(O)O`, in assay [2], the IC50 was determined as 1620 µM and the Ki was 800 µM.
Turning to `O=C(NO)OCc1ccccc1`, the IC50 in assay [2] was greater than 1000 µM.
Take `O=C(O)CCCS`: in assay [2], the IC50 came out at 43 µM.
For the compound `OB(O)c1cccs1`, the Ki in assay [3] worked out at 67 µM. Moreover, in assay [2], the IC50 came to 92 µM.
With `NC(=S)Nc1ccccc1` [PHENYLTHIOUREA], in assay [2], the IC50 is greater than 100 µM.
Regarding `O=C(O)c1ccc(B(O)O)cc1`, the IC50 in assay [2] was greater than 10000 µM.
On to `C[C@H](CS)C(=O)N1CCC[C@H]1C(=O)O`, for which the outcome in the assay on Escherichia coli [4], in the assay with Escherichia coli [5] and in the assay on Escherichia coli [6] was Active.
In the case of `CC(C)(S)[C@@H](N)C(=O)O` [PENICILLAMINE], in assay [2], the IC50 stood at 50 µM.
Same read-out and setting: as for `CCCCB(O)O` [BUTYL BORONIC ACID], the figure is roughly 10000 µM; as for `CCOC(=O)[C@H](CCc1ccccc1)N[C@@H](C)C(=O)N1CCC[C@H]1C(=O)O`, greater than 1000 µM; as for `CC(=O)NO` [ACETOHYDROXAMIC ACID], greater than 1000 µM.
